For one series, the system named is MCF-10A. Briefly: Growth inhibition of human MCF10A cells after 72 hrs by MTT assay. The series is classed as cell-based.
For series [1], the system named is MCF7. Briefly: cells. The conditions noted are these: Homo sapiens, MCF7, 72 h.
Description: Growth inhibition of human MCF7 cells after 72 hrs by MTT assay
In series [2] the target is T1, Estrogen receptor (Homo sapiens) (UniProt P03372).
T1 sequence (whole entry): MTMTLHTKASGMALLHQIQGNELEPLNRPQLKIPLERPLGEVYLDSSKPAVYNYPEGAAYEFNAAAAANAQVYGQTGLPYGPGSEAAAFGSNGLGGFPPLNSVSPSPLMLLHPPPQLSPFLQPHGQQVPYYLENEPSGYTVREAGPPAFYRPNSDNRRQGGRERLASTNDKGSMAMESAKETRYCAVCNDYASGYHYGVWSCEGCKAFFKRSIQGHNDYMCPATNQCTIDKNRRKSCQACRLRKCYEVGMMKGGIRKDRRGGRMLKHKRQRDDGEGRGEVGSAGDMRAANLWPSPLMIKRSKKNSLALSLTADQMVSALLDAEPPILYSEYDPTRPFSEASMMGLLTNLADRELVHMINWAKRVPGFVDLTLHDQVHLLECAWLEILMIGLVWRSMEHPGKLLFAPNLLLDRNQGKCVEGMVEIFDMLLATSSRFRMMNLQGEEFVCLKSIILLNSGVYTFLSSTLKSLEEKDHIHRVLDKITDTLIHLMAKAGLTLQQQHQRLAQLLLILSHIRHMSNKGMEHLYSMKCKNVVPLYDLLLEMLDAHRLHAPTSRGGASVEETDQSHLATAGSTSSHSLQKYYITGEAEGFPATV
Briefly: Antagonist activity at ERalpha in human MCF7 cells at 5 uM after 24 hrs by luciferase reporter gene assay relative to control. The series is classed as cell-based. In general terms: In a reporter assay the amount or activity of a reporter protein is the signal.

The nature of series [3]: Growth inhibition of human MCF10A cells at <25 uM after 72 hrs by MTT assay relative to control. The series is classed as cell-based, MCF-10A. To be noted: read-out: GI. (In general: Formazan colour is commonly taken as a measure of viable cells.)
Series [4] concerns MCF7. Briefly: Growth inhibition of human MCF7 cells at <25 uM after 72 hrs by MTT assay relative to control. The series is classed as functional.

Structures are written as SMILES. pIC50: −log10 of the molar value. Calls of active or inactive are those of the source. The calls are words filed in the database; no cut-off is given here.

As for `C[C@@H](O)[C@H]1CC[C@H]2[C@@H]3CCc4cc(O)ccc4[C@H]3CC[C@]12C`, the pIC50 was 5.23 with MCF-10A and 6.82 in the series on MCF7 [1]. The inhibition entry in series [2] was “Active”.

As for `C[C@H](O)[C@@]12CCCC[C@@H]1C[C@H]1[C@@H]3CCc4cc(O)ccc4[C@H]3CC[C@@]12C`, the values for the pIC50 with MCF-10A and in the series on MCF7 [1] were 4.64 and 5.34, respectively. Also, the inhibition entry in series [2] is “Active”.

In the series with MCF7 [1], `C[C@@H](O)[C@@]12CCCC[C@@H]1C[C@H]1[C@@H]3CCc4cc(O)ccc4[C@H]3CC[C@@]12C` gave a pIC50 of 5.17. The same compound had an inhibition in series [2] of 70%. Besides, the inhibition at 72 h in series [3] was below 50%.

Compound `CC/C(=C(\c1ccccc1)c1ccc(OCCN(C)C)cc1)c1ccccc1` [TAMOXIFEN] showed a pIC50 with MCF7 [1] of 5.28. The inhibition at 72 h in series [3] was below 50%.

For `CC(O)[C@@]12C[C@@H]1C[C@H]1[C@@H]3CCc4cc(O)ccc4[C@H]3CC[C@@]12C` (mixture of isomers), the pIC50 was 5.51 in the series with MCF-10A and 6.68 in the series on MCF7 [1]. The inhibition result in series [2] was “Active”.

As to `CC(=O)[C@@]12CCCC[C@@H]1C[C@H]1[C@@H]3CCc4cc(O)ccc4[C@H]3CC[C@@]12C`, the pIC50 with MCF7 [1] was 4.80. The inhibition result in series [2] was “Active”. Also, in series [3], the inhibition at 72 h was below 50%.

Consider `COc1ccc2c(c1)CC[C@@H]1[C@@H]2CC[C@@]2(C)[C@H]1C[C@H]1CCCC[C@]12C(C)O` (mixture of isomers), for which the inhibition result in series [2] was “inactive”.

For the compound `CC(O)C1=CC[C@H]2[C@@H]3CCc4cc(O)ccc4[C@H]3CC[C@]12C` (mixture of isomers), the values for the pIC50 with MCF-10A and in the series on MCF7 [1] were 4.72 and 5.34, respectively. The inhibition entry in series [2] was “inactive”.

As to `COc1ccc2c(c1)CC[C@@H]1[C@@H]2CC[C@@]2(C)[C@H]1C[C@H]1CCCC[C@]12C(C)=O`, the “growth inhibition (GI)” value in the series on MCF7 [4] is below 50%. For the same compound, in series [2], the inhibition entry is “inactive”. In addition, the inhibition at 72 h in series [3] was below 50%.

Turning to `CC(=O)[C@H]1CC[C@H]2[C@@H]3CCc4cc(O)ccc4[C@H]3CC[C@]12C`, in the series with MCF7 [4], the “growth inhibition (GI)” value is listed as below 50%. The inhibition result in series [2] was “inactive”. The inhibition at 72 h in series [3] was below 50%.

Usually pIC50 stands for the IC50 on a negative log10 scale, so that one unit is a factor of ten.
